These results are taken from patent US6437138B1, “3-pyridyloxymethyl heterocyclic ether compounds useful in controlling chemical synaptic transmission” (priority 1996, dated 2002).

Each structure is given as a SMILES string. pEC50, pKi: −log10 of the molar value. Counter-ions that a name gives are not always drawn.

The target in data set [1] is neuronal nicotinic cholinergic channel receptors (Rattus norvegicus, UniProt P09483+P12390). The note with it: displacement of [3H]-cytisine (1.25 nM), whole rat brain membranes; Ki from IC50 by Cheng and Prusoff correction; read-out: Binding Ki. How it is done:
A. Protocol For Determination of Nicotinic Cholinergic Channel Receptor Binding Potencies of Ligands
Binding of [^3H]-cytisine ([^3H]-CYT) to nicotinic receptors was accomplished using crude synaptic membrane preparations from whole rat brain (Pabreza et al., Molecular Pharmacol, 1990, 39:9). Washed membranes were stored at −80° C. prior to use. Frozen aliquots were slowly thawed and resuspended in 20 volumes of buffer (containing: 120 mM NaCl, 5 mM KCl, 2 mM MgCl2, 2 mM CaCl2 and 50 mM Tris-Cl, pH 7.4 @ 4° C.). After centrifuging at 20,000×g for 15 minutes, the pellets were resuspended in 30 volumes of buffer. Homogenate (containing 125-150 μg protein) was added to triplicate tubes containing concentrations of test compound and [^3H]-CYT (1.25 nM) in a final volume of 500 μL. Samples were incubated for 60 minutes at 4° C., then rapidly filtered through Whatman GF/B filters presoaked in 0.5% polyethyleneimine using 3×4 mL of ice-cold buffer. The filters are counted in 4 mL of Ecolume® (ICN). Nonspecific binding was determined in the presence of […] (−)-nicotine and values were expressed as a percentage of total binding.
For orientation: In a radioligand displacement assay an active substance lowers the binding of a labelled ligand.

Data set [2] concerns the target neuronal nicotinic cholinergic channels in IMR-32 cells (Homo sapiens, UniProt P30926+P32297). As to the kind of experiment: 86Rb+ efflux in IMR-32 cells (activation, or inhibition of efflux elicited by (S)-nicotine). Type of data set: cell-based. The note with it: for inhibition at 1 µM / inhibition at 10 µM: inhibition of the efflux elicited by 100 μM (S)-nicotine; for inhibition at 1 µM: single dose 1 μM; for inhibition at 10 µM: single dose 10 μM. The text has this:
For the purpose of directly evaluating the ability of test compounds to functionally activate or inhibit certain subtypes of neuronal nicotinic cholinergic channels, an assay to determine ^86Rb^+Efflux in IMR-32 cells was employed (Protocol B below).
B. Protocols for the Determination of Functional Effects of Cholinerzic Channel Receptor Ligands on Synaptic Transmission
Cells of the IMR-32 human neuroblastoma clonal cell line (ATCC, Rockville, Md.) were maintained in a log phase of growth according to established procedures (Lukas, 1993). Experimental cells were seeded at a density of 500,000 cells/ml into a 24-well tissue culture dish. Plated cells were allowed to proliferate for at least 48 hours before loading with 2 μCi/ml of ^86Rb^+ (35 Ci/mmol) overnight at 37° C. The ^86Rb^+ efflux assays were performed according to previously published protocols (Lukas, R. J., J. Pharmacol. Exp. Ther., 265: 294-302, 1993) except serum-free Dulbecco's Modified Eagle's Medium was used during the ^86Rb^+ loading, rinsing, and agonist-induced efflux steps.
EC50 data and maximal responses (reported as percent relative to the response elicited by 100 μM (S)-nicotine) are shown for selected compounds of the invention. The inhibition data (given for a larger number of compounds) reflect inhibition of the efflux elicited by 100 μM (S)-nicotine for either a single dose (% inhibition at 1 μM or at 10 μM) or over a range of doses (IC50 of inhibition). […] This finding is in agreement with the results of others who have linked dopamine release, which is dependent upon the ion flux in synaptic transmission, to binding at nicotinic receptors (cf., for example, Lippiello and Caldwell, U.S. Pat. No. 5,242,935, issued Sep. 7, 1993; Caldwell and Lippiello, U.S. Pat. No. 5,248,690, issued Sep. 28, 1993; and Wonnacott et al., Prog. Brain Res., 79: 157-163 (1989)).

neuronal nicotinic cholinergic channel receptors, sequence (P09483 31-630): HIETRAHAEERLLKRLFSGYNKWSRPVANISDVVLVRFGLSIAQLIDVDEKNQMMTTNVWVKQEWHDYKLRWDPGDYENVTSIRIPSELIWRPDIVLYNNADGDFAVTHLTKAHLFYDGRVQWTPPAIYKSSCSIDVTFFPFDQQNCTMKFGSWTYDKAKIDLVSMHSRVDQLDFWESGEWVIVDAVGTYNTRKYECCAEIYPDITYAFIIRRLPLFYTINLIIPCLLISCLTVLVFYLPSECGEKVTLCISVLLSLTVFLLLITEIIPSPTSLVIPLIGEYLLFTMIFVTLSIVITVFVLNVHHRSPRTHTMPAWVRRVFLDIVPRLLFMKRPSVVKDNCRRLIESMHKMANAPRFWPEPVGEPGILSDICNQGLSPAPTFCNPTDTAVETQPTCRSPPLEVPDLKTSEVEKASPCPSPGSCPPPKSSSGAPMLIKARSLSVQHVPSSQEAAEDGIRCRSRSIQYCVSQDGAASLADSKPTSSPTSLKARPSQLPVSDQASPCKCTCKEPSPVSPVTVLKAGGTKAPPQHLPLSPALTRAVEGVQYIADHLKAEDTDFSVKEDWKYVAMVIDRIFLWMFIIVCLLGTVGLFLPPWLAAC
neuronal nicotinic cholinergic channel receptors, sequence (P12390 25-500): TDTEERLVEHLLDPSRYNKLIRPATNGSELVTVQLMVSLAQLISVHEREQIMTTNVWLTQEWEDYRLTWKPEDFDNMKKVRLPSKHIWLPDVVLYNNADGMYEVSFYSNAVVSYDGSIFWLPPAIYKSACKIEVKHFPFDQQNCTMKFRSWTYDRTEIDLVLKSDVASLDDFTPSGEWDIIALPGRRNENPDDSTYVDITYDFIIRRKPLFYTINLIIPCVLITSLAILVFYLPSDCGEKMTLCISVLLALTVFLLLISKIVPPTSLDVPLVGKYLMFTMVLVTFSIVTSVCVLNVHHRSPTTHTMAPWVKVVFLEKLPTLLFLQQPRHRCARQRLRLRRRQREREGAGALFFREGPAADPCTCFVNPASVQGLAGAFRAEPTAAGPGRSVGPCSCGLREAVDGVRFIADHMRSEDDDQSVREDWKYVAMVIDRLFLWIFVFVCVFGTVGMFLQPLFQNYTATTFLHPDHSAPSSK

By pKi is commonly meant the negative decadic logarithm of the Ki, by convention in mol/L. As usually defined, the inhibition is the share of the control response that was lost under treatment. On to `CN1CCC[C@H]1COc1cncc(-c2cccc3ccccc23)c1` [Example 2, 5-(1-Naphthalenyl)-3-(1-methyl-2-(S)-pyrrolidinylmethoxy)pyridine Dihydrochloride], for which the pKi in data set [1] is 8.38. The inhibition at 1 µM in data set [2] (IMR-32) was 47%.
In the same order, the values of `COc1ccc(-c2cncc(OC[C@@H]3CCCN3C)c2)cc1` [Example 3, 5-(4-Methoxyphenyl)-3-(1-methyl-2-(S)-pyrrolidinylmethoxy)pyridine Dihydrochloride] are 9.49 and 39%.
Consider `CN1CCC[C@H]1COc1cncc(-c2ccco2)c1` [Example 5, 5-(2-Furanyl-3-(1-methyl-2-(S)-pyrrolidinylmethoxy)pyridine Dihydrochloride], for which the negative-log Ki (pKi) in data set [1] was 9.72. In data set [2] (IMR-32), this compound gave an inhibition at 1 µM of 27%.
The matching figures for `CN1CCC[C@H]1COc1cncc(-c2cccs2)c1` [Example 6, 5-(2-Thienyyl)-3-(1-methyl-2-(S)-pyrrolidinylmethoxy)pyridine Dihydrochloride]: 9.51 and 28%.
For `CC(=O)c1cncc(OC[C@@H]2CCCN2C)c1` [Example 10, 5-Acetyl-3-(1-methyl-2-(S)-pyrrolidinylmethoxy)pyridine Dihydrochloride], the pKi in data set [1] is 8.92. Moreover, in data set [2] (IMR-32), testing at 1 µM gave an inhibition of 32%.
In the same order, the values of `CN1CCC[C@H]1COc1cncc(-c2ccc(F)cc2)c1` [Example 11, 5-(4-Fluorophenyl)-3-(1-methyl-2-(S)-pyrrolidinylmethoxy)pyridine Dihydrochloride] are 9.96 and 38%.
The matching figures for `CN1CCC[C@H]1COc1cncc(/C=C/c2ccccc2)c1` [Example 18, 5-trans-(2-Phenylethenyl)-3-(1-methyl-2-(S)-pyrrolidinylmethoxy)pyridine Dihydrochloride]: 9.62 and 43%.
On to `CN1CCC[C@H]1COc1cncc(C(=O)N2CCCC2)c1` [Example 19, 5-(1-Pyrrolidinylcarbonyl)-3-(1)-methyl-2-(S)-pyrrolidinylmethoxy)pyridine Dihydrochloride], for which the negative-log Ki (pKi) in data set [1] is 7.70. This compound also came in with an inhibition at 1 µM in data set [2] (IMR-32) of 14%.
Consider `CN1CCC[C@H]1COc1cncc(CCc2ccccc2)c1` [Example 21, 5-(2-Phenylethyl)-3-(1-methyl-2-(S)-pyrrolidinylmethoxy)pyridine Dihydrochloride], for which the negative-log Ki (pKi) in data set [1] is 9.66. In data set [2] (IMR-32), this compound had an inhibition at 1 µM of 22%.
Take `COC(=O)c1cncc(OC[C@@H]2CCCN2C)c1` [Example 27, 5-Methoxycarbonol-3-(1-methyl-2-(S)-pyrrolidinylmethoxy)pyridine Dihydrochloride]: the pKi in data set [1] was 8.82. For the same compound, 1 µM produced 26% inhibition in data set [2] (IMR-32).
With `CN1CCC[C@H]1COc1cncc(CCc2ccncc2)c1` [Example 29, 5-(2-(4-Pyridinnyl)ethyl)-3-(1-methyl-2-(S)-pyrrolidinnylmethoxy)pyridine Trihydrochloride], in data set [1], the pKi is 10.19. Further, the inhibition at 1 µM in data set [2] (IMR-32) was 32%.
`CN1CCC[C@H]1COc1cncc(-c2ccc3ccccc3c2)c1` [Example 31, 5-(2-Naphthalenyl-3-(1-methyl-2-(S)-pyrrolidinylmethoxy)pyridine Dihydrochloride]: the negative-log Ki (pKi) in data set [1] was 9.48. Moreover, at 1 µM the inhibition in data set [2] (IMR-32) was 37%.
For orientation: melting point means the temperature of the solid-liquid transition. Regarding `Cl.Cl.Clc1ncc(OC[C@@H]2CCCN2)cc1-c1cccnc1` [Example 34, 5-(3-Pyridinyl)-6-chloro-3-(2-(S)-pyrrolidinylmethoxy)pyridine Dihydrochloride], the melting point fell in the range of 195 to 198 °C. Moreover, in data set [1], the pKi was 10.68. In data set [2] (IMR-32, 86Rb+ efflux, percent relative to the response elicited by 100 μM (S)-nicotine, read-out: IMR-32 maximal response), the Emax was determined as 88%.
For `CN1CCC[C@H]1COc1cncc(-c2cnc3ccccc3c2)c1` [Example 35, 5-(3-Ouinolinyl)-3-(1-methyl-2-(S)-pyrrolidinylmethoxy)pyridine Trihydrochloride], the pKi in data set [1] is 9.41. The compound also registered an inhibition at 1 µM in data set [2] (IMR-32) of 34%.
`CN1CCC[C@H]1COc1cncc(-c2cc3ccccc3n2C)c1.Cl` [Example 36, 5-(1-Methyl-2-indolyl)-3-(1-methyl-2-(S)-pyrrolidinylmethoxy)pyridine Hydrochloride] returned a melting point of 195 to 197 °C. In addition, the negative logarithm of the Ki (pKi) in data set [1] was 9.49. This compound also showed an inhibition at 1 µM in data set [2] (IMR-32) of 28%.
Regarding `CN1CCC[C@H]1COc1cncc(-c2cc(C(F)(F)F)cc(C(F)(F)F)c2)c1` [Example 37, 5-(3,5-bis(Trifluoromehyl)phenyl)-3-(1-methyl-2-(S)-pyrrolidinylmethoxy)pyridine Dihydrochloride], the pKi in data set [1] is 8.62. Further, at 1 µM the inhibition in data set [2] (IMR-32) was 41%.
`CN1CCC[C@H]1COc1cncc(-c2ccc(Cl)cc2)c1.Cl.Cl` [Example 38, 5-(4-Chlorophenyl)-3-(1-methyl-2-(S)-pyrrolidinylmethoxy)pyridine Dihydrochloride] yielded a melting point of 224 to 226 °C. Moreover, the pKi in data set [1] was 10.09. Also, in data set [2] (IMR-32), the inhibition at 1 µM amounted to 29% and the inhibition at 10 µM was 100%.
The compound `CN1CCC[C@H]1COc1cncc(-c2ccc(Cl)cc2Cl)c1.Cl.Cl` [Example 39, 5-(2,4-Dichlorophenyl)-3-(1-methyl-2-(S)-pyrrolidinylmethoxy)pyridine Dihydrochloride] returned a melting point of 176 to 178 °C. Besides, in data set [1], the pKi was 9.80. In data set [2] (IMR-32), this compound yielded an inhibition at 1 µM of 52%.
In the case of `CN1CCC[C@H]1COc1cncc(C#Cc2ccccc2)c1.Cl.Cl` [Example 40, 5-(2-Phenylethynyl)-3-(1-methyl-2-(S)-pyrrolidinylmethoxy)pyridine Dihydrochloride], the melting point fell in the range of 190 to 192 °C. In addition, the pKi in data set [1] was 9.80. In data set [2] (IMR-32), this compound had an inhibition at 1 µM of 30% and an inhibition at 10 µM of 100%.
Regarding `CN1CCC[C@H]1COc1cncc(-c2ccc(F)c(Cl)c2)c1` [Example 42, 5-(3-Chloro-4-fluorolphenyl)-3-(1-methyl-2-(S)-pyrrolidinylmethoxy)pyridine Dihydrochloride], the pKi in data set [1] is 10.26. In data set [2] (IMR-32), this compound returned an inhibition at 1 µM of 38%.
Turning to `CN1CCC[C@H]1COc1cncc(-c2ccccc2C=O)c1` [Example 44, 5-(2-Formylphenyl)-3-(1-methyl-2-(S)-pyrrolidinylmethoxy)pyridine Dihydrochloride], the pKi in data set [1] is 9.25. Further, in data set [2] (IMR-32), the inhibition at 1 µM was 30% and the inhibition at 10 µM is 97%.
`Cc1ccccc1-c1cncc(OC[C@@H]2CCCN2C)c1` [Example 45, 5-(2-Methylphenyl)-3-(1-methyl-2-(S)-pyrrolidinylmethoxy)pyridine Dihydrochloride]: the pKi in data set [1] was 8.96. Besides, in data set [2] (IMR-32), the inhibition at 1 µM is 41% and at 10 µM the inhibition was 100%.
For `CN1CCC[C@H]1COc1cncc(-c2ccc(C(F)(F)F)cc2)c1` [Example 46, 5-(4-(Trifluoromethyl)phenyl)-3-(1)-methyl-2-(S)-pyrrolidinylmethoxy)pyridine Dihydrochloride], the pKi in data set [1] is 9.82. Besides, in data set [2] (IMR-32), testing at 1 µM gave an inhibition of 37%.
What is called pEC50 is the negative decadic logarithm of the EC50, by convention in mol/L. Low readings indicate a large EC50, high ones a small EC50. As to `CCCCC#Cc1cncc(OC[C@@H]2CCN2)c1.Cl.Cl` [Example 58, 5-Hexynyl-3-(2-(S)-azetidinylmethoxy)pyridine Dihydrochloride], the pKi in data set [1] is 10.25. Besides, the pEC50 in data set [2] (86Rb+ efflux, activation) is 6.10. The IMR-32 maximal response in data set [2] (86Rb+ efflux, percent relative to the response elicited by 100 μM (S)-nicotine) is recorded as 47%.
